Consider 3 molecules from patent US20080064667A1, “OXAZOLE DERIVATIVES OF TETRACYCLINES” (Wyeth, priority 2003, published 2008).

≈ marks a conversion by molar mass, not a printed value. Bounds are passed on as bounds.

What all share (test): MIC, broth microdilution (NCCLS)
Type in all cases: cell-based

Experiment [1] concerns C. albicans GC3066 ATCC (Control). The conditions noted are these: Candida albicans, Mueller-Hinton II broth, 18-22 hours at 35° C.
For the next experiment, the system named is E. coli GC1073 (tet(B)). The settings on record: Escherichia coli. In short, it runs like this: (§1)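 Broth microdilution per NCCLS M7-A5 in Mueller-Hinton II broth, inoculum 10^5 CFU/ml. Plates incubated 18-22 h at 35 °C in ambient air; MIC is lowest inhibitory antibiotic concentration.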
Experiment [2] has as its system E. coli GC2203 (ATCC Control). The conditions noted are these: Escherichia coli, Mueller-Hinton II broth, 18-22 hours at 35° C. In short, it runs like this: as §1
The next experiment concerns E. coli GC2270 (tet(M)). The conditions noted are these: Escherichia coli. In short, it runs like this: as §1
Experiment [3] concerns E. coli GC4559 (parent GC4560). The conditions noted are these: Escherichia coli, Mueller-Hinton II broth, 18-22 hours at 35° C. In short, it runs like this:
as §1

Experiment [4] has as its system E. coli GC4560 (IMP mutant). The conditions noted are these: Escherichia coli. In short, it runs like this:
as §1

In experiment [5] the test system is E. faecalis GC2242 (Van-resistant). The settings on record: Enterococcus faecalis, Mueller-Hinton II broth, 18-22 hours at 35° C. The method in brief: as §1
The subject of experiment [6] is E. faecalis GC2267 (tet(L) + (M) + (S)). The settings on record: Enterococcus faecalis. The method in brief: as §1
For experiment [7], the system named is E. faecalis GC4555 (ATCC Control). The settings on record: Enterococcus faecalis, Mueller-Hinton II broth, 18-22 hours at 35° C. In short, it runs like this:
as §1

The subject of experiment [8] is H. influenzae<> GC6896 (ATCC Control). The conditions noted are these: Haemophilus influenzae, Mueller-Hinton II broth, 18-22 hours at 35° C. The method in brief:
as §1

The test system of experiment [9] is M. catarrhalis* GC6907 (Clinical). The conditions noted are these: Moraxella catarrhalis, Mueller-Hinton II broth, 18-22 hours at 35° C. In short, it runs like this: as §1
The subject of experiment [10] is S. aureus GC1079 (tet(K)). The conditions noted are these: Staphylococcus aureus, Mueller-Hinton II broth, 18-22 hours at 35° C. In short, it runs like this: as §1
Experiment [11] relates to S. aureus GC1131 (Clinical). The settings on record: Staphylococcus aureus, Mueller-Hinton II broth, 18-22 hours at 35° C. The method in brief: as §1
For experiment [12], the system named is S. aureus GC2216 (ATCC Control). The conditions noted are these: Staphylococcus aureus, Mueller-Hinton II broth, 18-22 hours at 35° C. The method in brief: as §1
Experiment [13] has as its system S. aureus GC4536 (Smith MP -In Vivo). The settings on record: Staphylococcus aureus, Mueller-Hinton II broth, 18-22 hours at 35° C. The method in brief:
as §1

Experiment [14] deals with S. aureus GC6466 (tet(M)). The settings on record: Staphylococcus aureus, Mueller-Hinton II broth, 18-22 hours at 35° C. In short, it runs like this: as §1
Experiment [15] has as its system S. aureus GC6467 (tet(M) + (K)). The settings on record: Staphylococcus aureus. In short, it runs like this: as §1
Experiment [16] concerns S. pneumoniae* GC1894 (Clinical). The settings on record: Streptococcus pneumoniae, Mueller-Hinton II broth, 18-22 hours at 35° C. In short, it runs like this: as §1
In experiment [17] the test system is S. pneumoniae* GC4465 (Clinical). The settings on record: Streptococcus pneumoniae, Mueller-Hinton II broth, 18-22 hours at 35° C. The method in brief:
as §1

Experiment [18] concerns S. pyogenes* GC4563 (Clinical). The settings on record: Streptococcus pyogenes, Mueller-Hinton II broth, 18-22 hours at 35° C. In short, it runs like this:
as §1

Regarding `CCCCCCOc1ccc(-c2nc3cc(N(C)C)c4c(c3o2)C(=O)C2=C(O)[C@]3(O)C(=O)C(C(N)=O)=C(O)[C@@H](N(C)C)[C@@H]3C[C@@H]2C4)cc1` [Example 32, (6aR,7aS,8S,11aS)-5,8-bis(dimethylamino)-2-[4-(hexyloxy)phenyl]-9,11a,12-trihydroxy-11,13-dioxo-6,6a,7,7a,8,11,11a,13-octahydrotetraceno[2,1-d][1,3]oxazole-10-carboxamide], the MIC (in experiment [1]; in the experiment on E. coli GC1073 (tet(B)); in experiment [2]; against E. coli GC2270 (tet(M)); in [3]; in experiment [4]) was more than 64 µg/mL in each case. The MIC was 64 µg/mL (≈ 97.2 µM) in experiment [5]; more than 64 µg/mL in [6]; 64 µg/mL (≈ 97.2 µM) in experiment [7]; more than 64 µg/mL in experiment [8]; 32 µg/mL (≈ 48.6 µM) in experiment [9]; more than 64 µg/mL in [10]. Besides, the MIC in [11] was more than 64 µg/mL; in experiment [12], more than 64 µg/mL; in experiment [13], more than 64 µg/mL; in experiment [14] it was more than 64 µg/mL; in experiment [15], more than 64 µg/mL; in experiment [16], 8 µg/mL (≈ 12.1 µM). For the same molecule, the MIC in experiment [17] and in experiment [18] was 16 µg/mL (≈ 24.3 µM) in each case.

In the case of `CN(C)c1cc2nc(CCl)oc2c2c1C[C@H]1C[C@H]3[C@H](N(C)C)C(O)=C(C(N)=O)C(=O)[C@@]3(O)C(O)=C1C2=O` [Example 35, (6aR,7aS,8S,11aS)-2-(chloromethyl)-5,8-bis(dimethylamino)-9,11a,12-trihydroxy-11,13-dioxo-6,6a,7,7a,8,11,11a,13-octahydrotetraceno[2,1-d][1,3]oxazole-10-carboxamide], the MIC is more than 64 µg/mL in experiment [1]; 32 µg/mL (≈ 60.3 µM) against E. coli GC1073 (tet(B)); 4 µg/mL (≈ 7.53 µM) in [2]; 16 µg/mL (≈ 30.1 µM) against E. coli GC2270 (tet(M)); 8 µg/mL (≈ 15.1 µM) in experiment [3]; 0.5 µg/mL (≈ 0.942 µM) in experiment [4]. Moreover, the MIC in experiment [5] was found to be 1 µg/mL (≈ 1.88 µM); in [6] it was 4 µg/mL (≈ 7.53 µM); in [7], 1 µg/mL (≈ 1.88 µM); in experiment [8] it was 2 µg/mL (≈ 3.77 µM); in [9], 0.5 µg/mL (≈ 0.942 µM); in [10], 4 µg/mL (≈ 7.53 µM). Besides, the MIC was found to be 0.5 µg/mL (≈ 0.942 µM) in experiment [11]; 0.5 µg/mL (≈ 0.942 µM) in experiment [12]; 1 µg/mL (≈ 1.88 µM) in [13]; 1 µg/mL (≈ 1.88 µM) in [14]; 8 µg/mL (≈ 15.1 µM) in experiment [15]; 0.25 µg/mL (≈ 0.471 µM) in [16]. Moreover, the MIC in experiment [17] amounted to 0.5 µg/mL (≈ 0.942 µM); in experiment [18] it was 0.25 µg/mL (≈ 0.471 µM).

As to `CN(C)c1cc2nc(CN3CCCC3)oc2c2c1C[C@H]1C[C@H]3[C@H](N(C)C)C(O)=C(C(N)=O)C(=O)[C@@]3(O)C(O)=C1C2=O` [Example 37, (6aR,7aS,8S,11aS)-5,8-bis(dimethylamino)-9,11a,12-trihydroxy-11,13-dioxo-2-(pyrrolidin-1-ylmethyl)-6,6a,7,7a,8,11,11a,13-octahydrotetraceno[2,1-d][1,3]oxazole-10-carboxamide], the MIC in [1] is more than 64 µg/mL; in [2] it was 2 µg/mL (≈ 3.54 µM); with E. coli GC2270 (tet(M)), 4 µg/mL (≈ 7.07 µM); in [3], 2 µg/mL (≈ 3.54 µM); in experiment [4], 1 µg/mL (≈ 1.77 µM); in experiment [5], 2 µg/mL (≈ 3.54 µM). The MIC in experiment [6] was determined as 4 µg/mL (≈ 7.07 µM); in experiment [7], 2 µg/mL (≈ 3.54 µM); in experiment [8], 4 µg/mL (≈ 7.07 µM); in [9], 1 µg/mL (≈ 1.77 µM); in experiment [10], 4 µg/mL (≈ 7.07 µM); in [11], 4 µg/mL (≈ 7.07 µM). The MIC in experiment [12] came out at 4 µg/mL (≈ 7.07 µM); in [13], 4 µg/mL (≈ 7.07 µM); in experiment [14], 4 µg/mL (≈ 7.07 µM); in experiment [15], 8 µg/mL (≈ 14.1 µM); in [16], 1 µg/mL (≈ 1.77 µM); in experiment [17] it was 1 µg/mL (≈ 1.77 µM). The molecule also returned an MIC in experiment [18] of 1 µg/mL (≈ 1.77 µM).
